The nature of data set [1]: DPPH radical scavenging assay. Particulars: for DPPH Scavenging at 0.1 mM, %: 0.1 mM compound; for DPPH Scavenging at 1 mM, %: 1 mM compound; for IC50: n in brackets. How it is done:
The direct antioxidant effects of compounds 3 were investigated by studying their radical-scavenging effect on the 2,2-diphenyl-1-picrylhydrazyl free radical (DPPH^•). Thus, a 100 μL volume of a methanol solution of each compound was added to 200 μL of 100 μM methanolic DPPH^•, and the solution was kept in the dark at 37 °C for 30 min in a 96-well microliter plate. After this incubation, the absorption at 490 nm of each solution was measured with a microplate reader in order to quantitate its decrease. A blank reading was also taken to calculate the amount of remaining DPPH^•. The radical-scavenging activity exerted by compounds 3 was determined by comparison with a 10 μL of MeOH-treated blank group. Ascorbic acid, a well-known antioxidant acting as a radical scavenger, was used as reference. All samples were analyzed in triplicate. Percent inhibition of the DPPH^• radical was calculated using the equation shown below, where AbsCtrl is the absorbance of the blank group and Abss is the absorbance of the samples containing compounds 3. For each compound showing a percentage of inhibition above 60%, the IC50 value was determined using a dose–response curve obtained from measurements corresponding to at least six concentrations. %Scavenger=AbsCtrl−AbsS/AbsCtrl×100
The radical scavenging activity of all compounds was first studied by the DPPH assay, which measures the ability of antioxidant compounds to donate a hydrogen atom to the violet 2,2-diphenyl-1-picrylhydrazyl radical and transform it into a nonradical species. Thus, it is generally considered to belong to the hydrogen atom transfer (HAT) category of methods for measurement of antioxidant activity.

The test system of data set [2] is neuroblastoma SHSY5Y cells. In words: Cytotoxicity in SHSY5Y cells (MTT reduction). The data set is classed as cell-based. Particulars: MTT reduction. How it is done:
SH-SY5Y cells (ECACC 94030304, Porton Down, Salisbury, UK), from passages between 4 and 16 after defreezing, were maintained in a MEM/F12 containing […] nonessential amino acids and supplemented with 10% fetal bovine serum (FBS), glutamine 1 mM, 50 units/mL of penicillin, and 50 μg/mL of streptomycin (GIBCO, Madrid, Spain). Cells were harvested in a […] flask and incubated at 37 °C with wet atmosphere and 5% CO2, carrying out passages 1:4 twice a week. For neuroprotection experiments, cells were seeded in 96-well plates at a density of 60,000 cells/well. For the toxicity experiments, cells were treated with the compounds under assay before reaching confluence, in MEM/F12 with 1% FBS.
Due to their presumed electrophilicity, the neurotoxicity of our compounds was investigated by investigating their influence on cell viability in the neuroblastoma SHSY5Y cell line prior to other studies in cell cultures. […] It is relevant to note that, despite their reputation for toxicity, interest in covalent drugs has undergone a renaissance, and about 30% of the recently marketed drugs belong to this class.
For orientation: Formazan colour is commonly taken as a measure of viable cells.

A further data set concerns Nrf2. Kind of data set: Nrf2 induction, luciferase assay in AREc32 cells. Particulars: Arec32, 24 h, read-out: CD (concentration that doubles luciferase activity). In kind it is cell-based. How it is done:
AREc32 cells (kindly shared by Dr. Professor Ronald C. Wolf, University of Dundee, Dundee, UK) were grown in Dulbecco’s modified Eagle medium (DMEM) with glutamax, supplemented with 10% fetal bovine serum (FBS), 1% of antibiotics penicillin–streptomycin, and geneticin (0.8 mg/mL, G418) (GIBCO, Madrid, Spain). Cells were harvested in a […] flask with 11 mL of the specified medium, incubated at 37 °C and 5% CO2, and they were transferred to a new flask every 4–6 days, when the confluence was around 80%. Cells were seeded in 96-well white plates (20,000 cells/well) using 100 μL/well. After 24 h, cells were treated with compounds at desired concentrations (1, 5, 10, 15 μM) for 24 h, including tert-butyl hydroquinone (TBHQ, 10 μM) as a positive control. Another 24 h later, luciferase activity was measured through a bioluminescence assay using a “Luciferase assay system” (Promega E1500, Madison, WI, USA), following the protocol given by the provider, and quantifying luminescence in an Orion II microplate luminometer (Berthold, Germany). Measurements were performed by duplicate, and the values were normalized to basal luminescence considered as 1. Nrf2 induction potency was expressed as CD values, i.e., the concentrations required to double the luciferase activity, and are calculated from dose–response curves generated by plotting fold induction of control conditions vs. compound concentration, and fitted by non-linear regression and data interpolated to value 2.
The ability of our compounds to induce Nrf2 was evaluated in the AREc32 cell line, an MCF7 stable clone that is transfected with eight copies of the luciferase reporter gene immediately after the ARE sequence. Therefore, Nrf2 activation and the subsequent transcription of the genes dependent on the ARE element also leads to expression of luciferase, which can be quantitated using a luminescence assay. AREc32 cells were incubated for 24 h with 0.3, 3, 10, 30, and 60 μM concentrations of compounds 3, and a luminescence measurement allowed CD values to be obtained. This parameter characterizes the Nrf2-inducing ability of each compound and represents the concentration required to double the luciferase activity compared to its basal expression.

The subject of another data set is SH-SY5Y cells. In words: Neuroprotection against rotenone/oligomycin A in SH-SY5Y cells (MTT). The data set is classed as cell-based. The conditions noted are these: Homo sapiens, 24 h, 1 µM compound, rotenone 30 µM + oligomycin A 10 µM, read-out: % Neuroprotection ± SEM at 1 µM (rotenone/oligomycin A). How it is done:
To evaluate the compounds for their neuroprotective effect in an oxidative stress model, we selected the rotenone (30 μM) and oligomycin A (10 μM) (R/O) cocktail, which disturbs the flow of electrons in the mitochondrial respiratory chain. Similarly, SH-SY5Y cells were preincubated with compounds 3 at 1 μM for 24 h. Then, they were co-incubated in the presence of R/O for a further 24 h, evaluating cell viability by the MTT reduction method.
Thus, the R/O combination constitutes a good model of oxidative stress and neurodegeneration with a mitochondrial origin, and has been broadly employed to evaluate potential hit compounds for the treatment of neurodegenerative diseases. Furthermore, treatment of laboratory animals with rotenone is known to induce many features associated to Parkinson’s disease, such as selective nigrostriatal dopaminergic degeneration and the appearance of α-synuclein cytoplasmic inclusions, which are associated with oxidative damage.

As usually defined, the IC50 is the concentration needed to halve the response being measured. A low value points to greater potency in that assay. `COC(=O)C1=C(C)N(CCc2ccccc2)C(=O)/C1=C\c1ccc(OCc2ccc(Cl)cc2)c(OC)c1` [Compound 3l, Methyl (Z)-4-[4-((4-Chlorobenzyl)oxy)-3-methoxybenzylidene]-2-methyl-5-oxo-1-phenethyl-4,5-dihydro-1H-pyrrole-3-carboxylate]: in data set [1], the “DPPH Scavenging at 0.1 mM, %” value stood at 11.3 ± 2.6%; the “DPPH Scavenging at 1 mM, %” value worked out at 63.5 ± 2.2%; the IC50 worked out at 712.2 ± 5.4 µM. The same compound gave an LD50 in data set [2] greater than 100 µM. Also, the EC (2-fold luciferase activity) in the data set on Nrf2 is 14 ± 4.45 µM. Also, in the data set on SH-SY5Y cells, the % neuroprotection against rotenone/oligomycin A toxicity at 1 µM turned out to be 79.8 ± 8.28%.

As for `COC(=O)C1=C(C)N(CCc2ccc(OC)c(OC)c2)C(=O)/C1=C\c1ccc(OCc2ccc(Cl)cc2)c(OC)c1` [Compound 3m, Methyl (Z)-4-[4-((4-Chlorobenzyl)oxy)-3-methoxybenzylidene]-1-(3,4-dimethoxyphenethyl)-2-methyl-5-oxo-4,5-dihydro-1H-pyrrole-3-carboxylate], in data set [1], the “DPPH Scavenging at 0.1 mM, %” value is recorded as 22.8 ± 0.2%; the “DPPH Scavenging at 1 mM, %” value turned out to be 85.5 ± 2.7%; 334 ± 22.9 µM corresponded to half-maximal inhibition (IC50). The LD50 in data set [2] is greater than 100 µM. The EC (2-fold luciferase activity) with Nrf2 amounted to 21.4 ± 5.72 µM. In addition, the % neuroprotection against rotenone/oligomycin A toxicity at 1 µM in the data set on SH-SY5Y cells came out at 41.2 ± 18.9%.

Consider `COC(=O)C1=C(C)N(CCc2ccc(OC)c(OC)c2)C(=O)/C1=C\c1ccc(OCc2ccccc2Cl)c(OC)c1` [Compound 3n, Methyl (Z)-4-[4-((2-Chlorobenzyl)oxy)-3-methoxybenzylidene]-1-(3,4-dimethoxyphenethyl)-2-methyl-5-oxo-4,5-dihydro-1H-pyrrole-3-carboxylate], for which, in data set [1], the “DPPH Scavenging at 0.1 mM, %” value is on record as 12.7 ± 3.5%; the “DPPH Scavenging at 1 mM, %” value stood at 73.6 ± 0.7%; 552 ± 17.4 µM corresponded to half-maximal inhibition (IC50). The same compound had an LD50 in data set [2] greater than 100 µM. The EC (2-fold luciferase activity) with Nrf2 came to 14.3 ± 3.89 µM. For the same compound, the % neuroprotection against rotenone/oligomycin A toxicity at 1 µM with SH-SY5Y cells is 69.4 ± 23.9%.

For the compound `COC(=O)C1=C(C)N(CCc2ccccc2)C(=O)/C1=C\c1c[nH]c2ccccc12` [Compound 3o, Methyl (Z)-4-((1H-Indol-3-yl)methylene)-2-methyl-5-oxo-1-phenethyl-4,5-dihydro-1H-pyrrole-3-carboxylate], in data set [1], the “DPPH Scavenging at 0.1 mM, %” value was 12.7 ± 1.9% and the “DPPH Scavenging at 1 mM, %” value worked out at 49.9 ± 3.4%. This compound also came in with an LD50 in data set [2] greater than 100 µM. For the same compound, the EC (2-fold luciferase activity) in the data set on Nrf2 turned out to be 36 ± 10.6 µM. Further, in the data set on SH-SY5Y cells, the % neuroprotection against rotenone/oligomycin A toxicity at 1 µM is greater than 90%.

The values above are taken from PMC8230565, “Bisavenathramide Analogues as Nrf2 Inductors and Neuroprotectors in In Vitro Models of Oxidative Stress and Hyperphosphorylation” (Antioxidants, 2021).
